What was measured:
Assay type in all cases: in vivo
[1] = tested on: Myzus persicae (Green Peach Aphid); assay: Example B6: Activity against Myzus persicae, systemic via roots of pea seedlings; conditions: 144 h, test rate 24 ppm, pea seedling roots in test solution, 6 days
Experimental: Roots of pea seedlings infested with an aphid population of mixed ages were placed directly in the aqueous test solutions prepared from 10′000 DMSO stock solutions. The samples were assessed for mortality 6 days after placing seedlings in test solutions.

[2] = tested on: Euschistus heros (Neotropical Brown Stink Bug); assay: Example B9: Activity against Euschistus heros, sprayed soybean leaf; conditions: 120 h, application rate 200 ppm, N2 nymphs on soybean leaf, 5 days after infestation, read-out: effect in at least one of the two categories (mortality or growth inhibition)
Experimental: Soybean leaf on agar in 24-well microtiter plates were sprayed with aqueous test solutions prepared from 10′000 ppm DMSO stock solutions. After drying the leaf were infested with N2 nymphs. The samples were assessed for mortality and growth inhibition in comparison to untreated samples 5 days after infestation.

[3] = tested on: Plutella xylostella (Diamond Back Moth); assay: Example B3: Activity against Plutella xylostella, artificial diet, L2 larvae; conditions: 120 h, application rate 200 ppm, L2 larvae on artificial diet, 5 days after infestation, read-out: effect in at least one of the two categories (mortality or growth inhibition)
Experimental: 24-well microtiter plates with artificial diet were treated with aqueous test solutions prepared from 10′000 ppm DMSO stock solutions by pipetting. After drying, the plates were infested with L2 larvae (10 to 15 per well). The samples were assessed for mortality and growth inhibition in comparison to untreated samples 5 days after infestation.

[4] = tested on: Myzus persicae (Green Peach Aphid); assay: Example B5: Activity against Myzus persicae, sprayed sunflower leaf discs; conditions: foliar, 144 h, application rate 200 ppm, mixed-age aphids on sunflower leaf discs, 6 days after infestation
Experimental: Sunflower leaf discs were placed on agar in a 24-well microtiter plate and sprayed with aqueous test solutions prepared from 10′000 ppm DMSO stock solutions. After drying, the leaf discs were infested with an aphid population of mixed ages. The samples were assessed for mortality 6 days after infestation.

[5] = tested on: Diabrotica balteata (Corn Root Worm); assay: Example B4: Activity against Diabrotica balteata, sprayed maize sprouts; conditions: 96 h, application rate 200 ppm, L2 larvae on maize sprouts, 4 days after infestation, read-out: effect in at least one of the two categories (mortality or growth inhibition)
Experimental: Maize sprouts placed onto an agar layer in 24-well microtiter plates were treated with aqueous test solutions prepared from 10′000 ppm DMSO stock solutions by spraying. After drying, the plates were infested with L2 larvae (6 to 10 per well). The samples were assessed for mortality and growth inhibition in comparison to untreated samples 4 days after infestation.

[6] = tested on: Frankliniella occidentalis (Western Flower Thrips); assay: Example B8: Activity against Frankliniella occidentalis, sprayed sunflower leaf discs; conditions: foliar, 168 h, application rate 200 ppm, mixed ages on sunflower leaf discs, 7 days after infestation
Experimental: Sunflower leaf discs were placed on agar in 24-well microtiter plates and sprayed with aqueous test solutions prepared from […] stock solutions. After drying the leaf discs were infested with a Frankliniella population of mixed ages. The samples were assessed for mortality 7 days after infestation.

[7] = tested on: Bemisia tabaci (Cotton White Fly); assay: Example B7: Activity against Bemisia tabaci, sprayed cotton leaf discs; conditions: foliar, 144 h, application rate 200 ppm, adult white flies on cotton leaf discs, 6 days after incubation
Experimental: Cotton leaf discs were placed on agar in 24-well microtiter plates and sprayed with aqueous test solutions prepared from 10′000 ppm DMSO stock solutions. After drying the leaf discs were infested with adult white flies. The samples were checked for mortality 6 days after incubation.

[8] = tested on: Plutella xylostella (Diamond Back Moth); assay: Example B12: Activity against Plutella xylostella, artificial diet, eggs; conditions: 192 h, application rate 200 ppm, eggs on artificial diet, 8 days after infestation, read-out: effect in at least one of the two categories (mortality or growth inhibition)
Experimental: 24-well microtiter plates with artificial diet were treated with aqueous test solutions prepared from 10′000 ppm DMSO stock solutions by pipetting. After drying, Plutella eggs were pipetted through a plastic stencil onto a gel blotting paper and the plate was closed with it. The samples were assessed for mortality and growth inhibition in comparison to untreated samples 8 days after infestation.

[9] = tested on: Spodoptera littoralis (Egyptian Cotton Leaf Worm); assay: Example B1: Activity against Spodoptera littoralis, sprayed cotton leaf discs; conditions: foliar, 72 h, application rate 200 ppm, L1 larvae on cotton leaf discs, 3 days after infestation, read-out: control (at least one of mortality, anti-feedant effect, growth inhibition)
Experimental: Cotton leaf discs were placed onto agar in 24-well microtiter plates and sprayed with aqueous test solutions prepared from 10′000 ppm DMSO stock solutions. After drying the leaf discs were infested with five L1 larvae. The samples were assessed for mortality, anti-feeding effect, and growth inhibition in comparison to untreated samples 3 days after infestation. Control of Spodoptera littoralis by a test sample is given when at least one of the categories mortality, anti-feedant effect, and growth inhibition is higher than the untreated sample.

CCn1c(=O)n(C)c2cc(-c3nc4cc(C(F)(F)F)ncc4n3C)c(S(=O)(=O)CC)cc21 [Compound P4, 1-ethyl-6-ethylsulfonyl-3-methyl-5-[3-methyl-6-(trifluoromethyl)imidazo[4,5-c]pyridin-2-yl]benzimidazol-2-one]
≥ 80%: mortality at 24 ppm [1] | percent effect (mortality or growth inhibition) at 200 ppm [2] | percent effect (mortality or growth inhibition) at 200 ppm [3] | mortality at 200 ppm [4] | percent effect (mortality or growth inhibition) at 200 ppm [5] | mortality at 200 ppm [6]

CCSc1cc2c(cc1-c1nc3cc(C(F)(F)F)cnc3n1C)n(CC)c(=O)n2C [Compound P7, 1-ethyl-5-ethylsulfanyl-3-methyl-6-[3-methyl-6-(trifluoromethyl)imidazo[4,5-b]pyridin-2-yl]benzimidazol-2-one]
≥ 80%: percent effect (mortality or growth inhibition) at 200 ppm [2] | percent effect (mortality or growth inhibition) at 200 ppm [3] | percent effect (mortality or growth inhibition) at 200 ppm [5]

CCS(=O)(=O)c1cc2c(nc1-c1nc3cc(C(F)(F)F)ncc3n1C)n(C)c(=O)n2C [Compound P8, 6-ethylsulfonyl-1,3-dimethyl-5-[3-methyl-6-(trifluoromethyl)imidazo[4,5-c]pyridin-2-yl]imidazo[4,5-b]pyridin-2-one]
≥ 80%: mortality at 24 ppm [1] | percent effect (mortality or growth inhibition) at 200 ppm [2] | percent effect (mortality or growth inhibition) at 200 ppm [3] | mortality at 200 ppm [4] | mortality at 200 ppm [6] | mortality at 200 ppm [7]

CCS(=O)(=O)c1cc2c(cc1-c1nc3cc(C(F)(F)F)ncc3n1C)n(C)c(=O)n2C [Compound P9, 5-ethylsulfonyl-1,3-dimethyl-6-[3-methyl-6-(trifluoromethyl)imidazo[4,5-c]pyridin-2-yl]benzimidazol-2-one]
≥ 80%: mortality at 24 ppm [1] | percent effect (mortality or growth inhibition) at 200 ppm [2] | mortality at 200 ppm [4] | mortality at 200 ppm [6]

CCS(=O)(=O)c1cc2c(cc1-c1nc3cc(C(F)(F)F)cnc3n1C)n(C#N)c(=O)n2C [Compound P14, 5-ethylsulfonyl-3-methyl-6-[3-methyl-6-(trifluoromethyl)imidazo[4,5-b]pyridin-2-yl]-2-oxo-benzimidazole-1-carbonitrile]
≥ 80%: mortality at 24 ppm [1] | percent effect (mortality or growth inhibition) at 200 ppm [2] | mortality at 200 ppm [4] | mortality at 200 ppm [6]

CCS(=O)(=O)c1cc2c(cc1-c1nc3cc(C(F)(F)F)cnc3n1C)n(CS(C)(=O)=O)c(=O)n2C [Compound P16, 6-ethylsulfonyl-1-methyl-3-(methylsulfonylmethyl)-5-[3-methyl-6-(trifluoromethyl)imidazo[4,5-b]pyridine-2-yl]benzimidazol-2-one]
≥ 80%: mortality at 24 ppm [1] | percent effect (mortality or growth inhibition) at 200 ppm [2] | mortality at 200 ppm [4] | mortality at 200 ppm [6]

CCS(=O)(=O)c1cc2c(cc1-c1nc3cc(C(F)(F)F)cnc3n1C)n(COC)c(=O)n2C [Compound P18, 5-ethylsulfonyl-1-(methoxy-methyl)-3-methyl-6-[3-methyl-6-(trifluoromethyl)imidazo[4,5-b]pyridine-2-yl]benzimidazol-2-one]
≥ 80%: mortality at 24 ppm [1] | percent effect (mortality or growth inhibition) at 200 ppm [2] | percent effect (mortality or growth inhibition) at 200 ppm [3] | mortality at 200 ppm [4] | percent effect (mortality or growth inhibition) at 200 ppm [5]

CCS(=O)(=O)c1cc2c(cc1-c1nc3cc(SC(F)(F)F)ccc3o1)n(C)c(=O)n2C [Compound P29, 5-ethylsulfonyl-1,3-dimethyl-6-[5-(trifluoromethylsulfanyl)-1,3-benzoxazol-2-yl]benzimidazol-2-one]
≥ 80%: percent effect (mortality or growth inhibition) at 200 ppm [8] | percent effect (mortality or growth inhibition) at 200 ppm [2] | percent effect (mortality or growth inhibition) at 200 ppm [5] | percent control (mortality, anti-feedant effect or growth inhibition) at 200 ppm [9]

CCS(=O)(=O)c1cc2c(cc1-c1nc3cc(SC(F)(F)F)ccc3n1C)n(C)c(=O)n2C [Compound P36, 5-ethylsulfonyl-1,3-dimethyl-6-[1-methyl-5-(trifluoromethyl-sulfanyl)benzimidazol-2-yl]benzimidazol-2-one]
≥ 80%: percent effect (mortality or growth inhibition) at 200 ppm [8] | mortality at 24 ppm [1] | percent effect (mortality or growth inhibition) at 200 ppm [2] | mortality at 200 ppm [4] | percent effect (mortality or growth inhibition) at 200 ppm [5] | mortality at 200 ppm [7]

CCS(=O)(=O)c1cc2c(nc1-c1nc3cc(SC(F)(F)F)ccc3n1C)n(C)c(=O)n2C [Compound P38, 6-ethylsulfonyl-1,3-dimethyl-5-[1-methyl-5-(trifluoromethyl-sulfanyl)benzimidazol-2-yl]imidazo[4,5-b]pyridin-2-one]
≥ 80%: percent effect (mortality or growth inhibition) at 200 ppm [8] | mortality at 24 ppm [1] | mortality at 200 ppm [4] | percent effect (mortality or growth inhibition) at 200 ppm [5] | percent control (mortality, anti-feedant effect or growth inhibition) at 200 ppm [9] | mortality at 200 ppm [6] | mortality at 200 ppm [7]

CCS(=O)(=O)c1cc2c(nc1-c1nc3cc(S(=O)(=O)C(F)(F)F)ccc3n1C)n(C)c(=O)n2C [Compound P39, 6-ethylsulfonyl-1,3-dimethyl-5-[1-methyl-5-(trifluoromethyl-sulfonyl)benzimidazol-2-yl]imidazo[4,5-b]pyridine-2-one]
≥ 80%: percent effect (mortality or growth inhibition) at 200 ppm [8] | mortality at 24 ppm [1] | percent effect (mortality or growth inhibition) at 200 ppm [2] | mortality at 200 ppm [4] | percent control (mortality, anti-feedant effect or growth inhibition) at 200 ppm [9] | mortality at 200 ppm [7]

CCS(=O)(=O)c1cc2c(nc1-c1nc3cc([S+]([O-])C(F)(F)F)ccc3o1)n(C)c(=O)n2C (stereo not shown) [Compound P45, 6-ethylsulfonyl-1,3-dimethyl-5-[5-(trifluoromethylsulfinyl)-1,3-benzoxazol-2-yl]imidazo[4,5-b]pyridin-2-one]
≥ 80%: percent effect (mortality or growth inhibition) at 200 ppm [8] | mortality at 24 ppm [1] | percent effect (mortality or growth inhibition) at 200 ppm [2] | percent effect (mortality or growth inhibition) at 200 ppm [5] | percent control (mortality, anti-feedant effect or growth inhibition) at 200 ppm [9] | mortality at 200 ppm [6]

— patent US11399542B2, “Pesticidally active heterocyclic derivatives with sulfur containing substituents” (SYNGENTA PARTICIPATIONS AG, priority 2017, dated 2022)
